According to patent US7045617B2, “Bisbubstrate inhibitors of kinases” (priority 2000, dated 2006):
Like-named read-outs stand apart in the source and are kept apart here. Values belong to the compound of their own block, whether it stands above or below them. Where a SMILES comes first, the peptide text is derived from it. [ ]: non-standard residue; d: D form. The star is where a group is joined. X1 = Nc1ncnc2c1ncn2[C@@H]1O[C@H](COP(=O)(O)OP(=O)(O)OP(=O)(O)SCC(=O)*)[C@@H](O)[C@H]1O; Phe(4-NH2) = Nc1ccc(C[C@H](N)C(=O)O)cc1; Dap = NC[C@H](N)C(=O)O

Experiments:
[1] = target: activated recombinant IRK (insulin receptor kinase) (Homo sapiens, UniProt P06213); experiment: Steady-state kinetic analysis of IRK inhibition (kinase assay); type: biochemical; conditions: for binding energy: binding to IRK
activated recombinant IRK (insulin receptor kinase), sequence (P06213 1005-1310 limits assumed): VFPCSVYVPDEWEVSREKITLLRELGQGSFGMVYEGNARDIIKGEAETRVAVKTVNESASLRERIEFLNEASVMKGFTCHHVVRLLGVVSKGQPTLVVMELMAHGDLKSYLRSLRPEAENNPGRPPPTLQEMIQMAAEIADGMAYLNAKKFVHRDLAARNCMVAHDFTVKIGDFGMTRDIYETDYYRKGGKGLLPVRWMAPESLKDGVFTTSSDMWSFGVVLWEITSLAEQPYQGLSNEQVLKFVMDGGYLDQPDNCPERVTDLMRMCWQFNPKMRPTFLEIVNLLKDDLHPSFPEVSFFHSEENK
Description: FIG. 2. […] Assays were carried out using activated recombinant IRK as described previously. 6 a, E/V vs. 1/ATP in the presence of varying. Conditions: fixed IRS727 concentration ([…]), 20 mM MgCl2, 0.5 mM DTT, 6 nM IRK, 0.05% bovine serum albumin, Tris-Acetate pH 7, 10 min reaction time. b, E/V vs. 1/IRS727 in the presence of varying. Conditions same as for a except fixed ATP ([…]), 8 nM IRK and 5 min reaction time.
v=Vm(S)/[Km(1+I/Ki)+S]; v=initial velocity, Vm=maximal velocity, S=substrate concentration, Km=Michaelis constant. […] Conditions: Incubation of […] +/−5 mM 2 for 10 min in reaction buffer (20 mM MgCl2, 0.5 mM DTT, 0.05% BSA, 50 mM Tris-Acetate, pH 7) then dilute 1:50 into reaction buffer containing 1 mM ATP and […] peptide6 IRS939 and measure conversion by HPLC at times shown. To determine koff, data were fit to the equation^17: […]
Assays were carried out using activated recombinant IRK as described previously^6. For E/V vs. 1/ATP plot the conditions were: […] IRS727 concentration, 20 mM MgCl2, 0.5 mM DTT, 6 nM IRK, 0.05% bovine serum albumin, 50 mM Tris-Acetate pH 7, 10 min reaction time. For E/V vs. 1/IRS727 in the conditions were the same except fixed ATP ([…]) was employed, 8 nM IRK and 5 min reaction time.
v=Vm(S)/[Km(1+I/Ki)+S]; v=initial velocity, Vm=maximal velocity, S=substrate concentration, Km=Michaelis constant.

Csk = Csk (Homo sapiens, UniProt P41240); experiment: Inhibition of protein tyrosine kinase Csk; type: biochemical; conditions: read-out: Km (ATP)
Description: The specificity of inhibition was also tested by assaying 2 as an inhibitor of the protein tyrosine kinase Csk18. The peptide binding selectivity for Csk is quite different from IRK, and the IRS727 peptide moiety would be predicted to bind poorly to this enzyme^19. […] Thus the bisubstrate analog approach should allow for kinase selectivity based in part on peptide sequence.

[2] = Stability of compound in aqueous solution; type: physicochemical
Text: The protected peptide was assembled using solid-phase peptide synthesis using Fmoc chemistry, in which the single tyrosine of IRS727 was replaced with commercially available nitrophenylalanine. The nitro group was reduced with SnCl2 and the aniline function was bromoacetylated via standard coupling conditions. The peptide was cleaved from the resin and deblocked with trifluoroacetic acid, water, and thioanisole and purified by reversed phase HPLC. […] The peptide-ATP conjugate 2 was purified by reversed phase HPLC and characterized by electrospray mass spectrometry and 1H NMR.

[3] = target: T1, recombinant mouse PKA (catalytic subunit) (Mus musculus, UniProt P05132); experiment: PKA inhibition assay (Calbiochem kit, Dixon plot); type: biochemical; conditions: preliminary assays
T1 construct: purchased Calbiochem
Description: Reagents from Calbiochem's Protein Kinase A kit were used to perform the inhibition assays and recombinant mouse PKA (catalytic subunit) was also purchased from Calbiochem (enzyme concentration was established by Bradford analysis). A 0.76 mM stock solution of kemptide-ATPγS conjugate was prepared and used to make serial dilutions into an aqueous MgCl2 solution (53 mM), producing a range of inhibitor concentrations from 144 uM to 1.4 μM with Mg2+ concentration of 47.7 mM. These were further diluted into water to produce a range of inhibitor solutions between 51 μM and 507 nM. An 11.25 μL aliquot from each of these solutions was pre-incubated with 7.5 μL of a 1.75 nM PKA enzyme solution (750 ug/uL bovine serum albumin) for 10 minutes at 30° C. after which 12.5 μL of pre-incubation mix was added to 12.5 μL of reaction mix (30 μM cold ATP, 50 μM biotinylated kemptide substrate, 0.04 uCi/μL γP-32 ATP, 80 mM Tris-HCl, 10 mM MgCl2, pH 7.5) to initiate the enzymatic reaction. […] The columns were placed in scintillation vials and radioactivity was measured using a scintillation counter.

- Km ([1]; substrates of IRK, read-out: Km app): 71 µM
- Km (Csk): 195 µM
Compound: Nc1ncnc2c1ncn2[C@@H]1O[C@H](COP(=O)(O)OP(=O)(O)OP(=O)(O)O)[C@@H](O)[C@H]1O [ATP, reference compound]

Compound: CSCC[C@H](NC(=O)[C@H](Cc1ccc(NC(=O)CSP(=O)(O)OP(=O)(O)OP(=O)(O)OC[C@H]2O[C@@H](n3cnc4c(N)ncnc43)[C@H](O)[C@@H]2O)cc1)NC(=O)[C@H](CC(=O)O)NC(=O)CNC(=O)[C@@H](NC(=O)[C@H](C)NC(=O)[C@@H]1CCCN1C(=O)[C@H](CC(C)C)NC(=O)[C@H](CCCCN)NC(=O)[C@H](CCCCN)NC(=O)[C@H](CCCCN)NC(C)=O)[C@@H](C)O)C(=O)N[C@@H](CC(N)=O)C(=O)N[C@@H](CCSC)C(=O)N[C@@H](CO)C(=O)N1CCC[C@H]1C(=O)N[C@H](C(=O)NCC(=O)N[C@@H](CC(=O)O)C(=O)O)C(C)C [Compound 2] (Ac-KKKLPATGD[Phe(4-NH2)](X1)MNMSPVGD-OH)
- mode of inhibition of IRK [1]: linear competitive inhibitor versus both nucleotide (FIG. 2a) and peptide (FIG. 2b) substrates
- binding energy [1]: 8.9 kcal/mol
- half-life ([2]; acidic solution (pH 2), read-out: half life of decomposition (converted)): ~120 min
- storage stability ([2]; frozen solution at −80° C. for several weeks): without detectable decomposition
- time stable in aqueous solution ([2]; neutral pH, room temperature): > 12 h

Compound: Nc1ncnc2c1ncn2[C@@H]1O[C@H](COP(=O)(O)OP(=O)(O)OP(=O)(O)SCC(=O)Nc2ccccc2)[C@@H](O)[C@H]1O [Compound 3]
- Ki [1]: 114 µM
- fold tighter binding than ATP-γS alone [1]: 2 fold
- fold weaker as an inhibitor than 2 [1]: approximately 300 fold
- mode of inhibition of IRK [1]: linear competitive inhibitor of IRK versus ATP

Compound: CC(=O)N[C@@H](CC(C)C)C(=O)N[C@@H](CCCNC(=N)N)C(=O)N[C@@H](CCCNC(=N)N)C(=O)N[C@@H](C)C(=O)N[C@@H](CNC(=O)CSP(=O)(O)OP(=O)(O)OP(=O)(O)OC[C@H]1O[C@@H](n2cnc3c(N)ncnc32)[C@H](O)[C@@H]1O)C(=O)N[C@@H](CC(C)C)C(=O)NCC(=O)O [kemptide-ATPγS conjugate] (Ac-LRRA[Dap](X1)LG-OH)
- inhibition of PKA (in words) [3]: inhibitory to PKA
- Ki ([3]; reversible competitive inhibition model, read-out: calculated Ki versus ATP): 9.6 µM

Compound: adenosine 5′-O-3-thiotriphosphate [ATPγS, reference compound]
- binding energy [1]: 5.1 kcal/mol
- Ki ([1]; linear competitive versus ATP, read-out: Ki versus ATP): 210 µM
